Assay results: ChEMBL document CHEMBL4196078, “Polypharmacology in HIV inhibition: can a drug with simultaneous action against two relevant targets be an alternative to combination therapy?” (Eur J Med Chem, 2018)
In brackets after ≈: the same amount, converted by molar mass.

What was measured:
[1] = test system: Human immunodeficiency virus 1; assay: Antiviral activity against HIV1 3B infected in human MT4 cells by MTT assay; type: functional, organism-based; settings: Human immunodeficiency virus 1, 3B
[2] = test system: Human immunodeficiency virus 1; assay: Antiviral activity against HIV1 3B infected in human PBMC after 5 days by MTT assay; type: functional, organism-based; settings: Human immunodeficiency virus 1, 3B, 120 h
[3] = test system: Human immunodeficiency virus 2; assay: Antiviral activity against HIV2 D194 infected in human PBMC after 5 days by MTT assay; type: functional, organism-based, Human immunodeficiency virus type 2 (ISOLATE D194); settings: Human immunodeficiency virus 2, 120 h
[4] = test system: Human immunodeficiency virus 1; assay: Antiviral activity against HIV1 Lai infected in human CEM-SS cells after 5 days by MTT assay; type: functional, organism-based; settings: Human immunodeficiency virus 1, M:B_Lai, 120 h
Herpesviridae sp. [5] = assay: Antiviral activity against HSV; type: functional, organism-based
Hepatitis B virus = assay: Antiviral activity against HBV; type: functional, organism-based
Herpesviridae sp. [6] = assay: Potency index, ratio of tenofovir EC50 to compound EC50 for antiviral activity against HSV; type: functional
[7] = test system: Human immunodeficiency virus 1; assay: Antiviral activity against HIV1; type: functional, organism-based
[8] = test system: Human immunodeficiency virus 1; assay: Antiviral activity against HIV1 infected in human CEM cells assessed as reduction in giant cell formation by microscopic method; type: functional, organism-based; settings: Human immunodeficiency virus 1, CCRF-CEM
[9] = target: T1, Human immunodeficiency virus type 1 reverse transcriptase (Human immunodeficiency virus 1, UniProt Q72547); assay: Inhibition of HIV1 reverse transcriptase RNase H
Gag-Pol polyprotein = Gag-Pol polyprotein (Human immunodeficiency virus type 1 group M subtype B (isolate HXB2)(HIV-1), UniProt P04585); assay: Inhibition of HIV1 reverse transcriptase polymerase; parameters: species or system Human immunodeficiency virus 1
[10] = test system: Human immunodeficiency virus 1; assay: Antiviral activity against HIV1 3B infected in human CEM/0 after 4 days by microscopic method; type: functional, organism-based; settings: Human immunodeficiency virus 1, 3B, CCRF-CEM, 96 h
[11] = test system: Human immunodeficiency virus 2; assay: Antiviral activity against HIV2; type: functional, organism-based
[12] = test system: Moloney murine sarcoma virus; assay: Antiviral activity against MSV; type: functional, organism-based
Human alphaherpesvirus 3 = assay: Antiviral activity against VZV; type: functional, organism-based
[13] = test system: Human immunodeficiency virus 1; assay: Antiviral activity against HIV1 3B infected in human MT4 cells; type: functional, organism-based; settings: Human immunodeficiency virus 1, 3B
[14] = test system: Human immunodeficiency virus 1; assay: Antiviral activity against HIV1 Lai infected in human MOLT4 cells after 7 days by WST8 assay; type: functional, organism-based; settings: Human immunodeficiency virus 1, M:B_Lai, MOLT-4, 168 h
[15] = target: T1, Human immunodeficiency virus type 1 reverse transcriptase; assay: Inhibition of HIV1 reverse transcriptase polymerase p51/p66 after 10 to 20 mins in presence of [3H]-TTP by liquid scintillation counting method
[16] = target: T1, Human immunodeficiency virus type 1 reverse transcriptase; assay: Inhibition of HIV1 reverse transcriptase RNase H using RNA-DNA hybrid duplex after 30 mins by FRET-based microplate fluorescence assay
[17] = Half life of the compound in PBS by HPLC analysis; type: physicochemical
[18] = target: T1, Human immunodeficiency virus type 1 reverse transcriptase; assay: Inhibition of HIV1 3B reverse transcriptase using polyC/oligo(dG12) as template/primer in presence of [3H]dGTP and calf thymus DNA after 30 mins
[19] = target: Human immunodeficiency virus type 1 reverse transcriptase (Human immunodeficiency virus 1, UniProt Q72547, E138K); assay: Inhibition of TSAO resistant HIV1 3B reverse transcriptase E138K mutant using polyC/oligo(dG12) as template/primer in presence of [3H]dGTP and calf thymus DNA after 30 mins
[20] = Stability in culture medium containing 10% FBS at 100 uM after 72 hrs by HPLC analysis; type: ADME; settings: cattle, read-out: Stability
[21] = test system: Human immunodeficiency virus 1; assay: Antiviral activity against PFA-resistant HIV1 harboring RT W88G mutant infected in human P4/R5 cells after 48 hrs by beta-galactosidase reporter gene assay; type: functional, organism-based; settings: Human immunodeficiency virus 1, P4/R5, 48 h

CCc1c(Sc2cc(C)cc(C)c2)n(CCCCC(=O)NCCCCCCCCCCCCNc2ccn([C@H]3CC[C@@H](CO)O3)c(=O)n2)c(=O)[nH]c1=O
EC50 [1]: 450 nM
EC50 [2]: 450 nM
EC50 [3]: 450 nM
EC50 [4]: 450 nM

Nc1cc(OCCOCP(=O)(O)O)nc(N)n1
EC50 (Herpesviridae sp. [5]): 6.3 µg/mL (≈ 23.8 µM)
EC50 (Hepatitis B virus): 300 nM
Ratio EC50 (Herpesviridae sp. [6]): 20
EC50 [7]: 0.8 µg/mL

Cc1cn([C@@H]2O[C@H](CO[Si](C)(C)C(C)(C)C)[C@@]3(OS(=O)(=O)C=C3N)[C@H]2O[Si](C)(C)C(C)(C)C)c(=O)n(CCCO)c1=O
EC50 [8]: 100 nM

O=C1c2ccccc2C(=O)c2c1ccc(O)c2O [ATHRAQUINONES A]
IC50 [9]: > 100000 nM
IC50 (Gag-Pol polyprotein): 79000 nM

Cc1cn([C@@H]2O[C@H](CO[Si](C)(C)C(C)(C)C)[C@@]3(OS(=O)(=O)C=C3N)[C@H]2O[Si](C)(C)C(C)(C)C)c(=O)n(CCCn2c(=O)c(C)cn([C@H]3C[C@H](N=[N+]=[N-])[C@@H](CO)O3)c2=O)c1=O
EC50 [10]: 90 nM

Nc1nc(N)nc(OCCOCP(=O)(O)O)n1
EC50 [11]: 3700 nM
EC50 (Hepatitis B virus): 3100 nM
EC50 [12]: 350 nM
EC50 (Human alphaherpesvirus 3): 3100 nM
EC50 [7]: 2400 nM

Cc1cn([C@H]2C[C@H](N=[N+]=[N-])[C@@H](COP(=O)(OC[C@@H]3CC[C@H](n4cnc5c(=O)[nH]cnc54)O3)OC[C@@H]3CC[C@H](n4cnc5c(=O)[nH]cnc54)O3)O2)c(=O)[nH]c1=O
EC50 [13]: 165 nM

Cc1cn([C@H]2C[C@H](N=[N+]=[N-])[C@@H](CO)O2)c(=O)[nH]c1=O [ZIDOVUDINE]
EC50 [13]: 2 nM
EC50 [14]: 6.2 nM
EC50 [7]: 126 nM

CC(C)(C)NC(=O)[C@H]1N(C(=O)[C@@H](O)[C@H](Cc2ccccc2)NC(=O)CC(C)(C)C(=O)O)CSC1(C)C
EC50 [7]: 52 nM

COc1ccc2ccccc2c1/C=N/NC(=O)c1ccc(O)c(O)c1
IC50 [15]: > 25000 nM
IC50 [16]: 500 nM

C[C@H](Cn1cnc2c(N)ncnc21)OCP(=O)(O)O [TENOFOVIR ANHYDROUS]
EC50 (Herpesviridae sp. [5]): 105 µg/mL (≈ 366 µM)

O=c1[nH]cnc2c1ncn2[C@H]1CC[C@@H](CO)O1 [DIDANOSINE]
EC50 [13]: 13300 nM

Cc1cn([C@H]2C=C[C@@H](COC(=O)OC[C@H]3O[C@@H](n4cc(C)c(=O)[nH]c4=O)C[C@@H]3N=[N+]=[N-])O2)c(=O)[nH]c1=O
EC50 [7]: 6 nM

CCc1c(Sc2cc(C)cc(C)c2)n(COCCO)c(=O)[nH]c1=O
EC50 [13]: 7 nM

Cc1cn([C@H]2C[C@H](N=[N+]=[N-])[C@@H](COC(=O)NCCCCNC(=O)OC[C@H]3O[C@@H](n4cc(C)c(=O)[nH]c4=O)C[C@@H]3N=[N+]=[N-])O2)c(=O)[nH]c1=O
EC50 [7]: 26000 nM

Cc1cn([C@@H]2O[C@H](CO[Si](C)(C)C(C)(C)C)[C@@]3(OS(=O)(=O)C=C3N)[C@H]2O[Si](C)(C)C(C)(C)C)c(=O)n(CCCOP(=O)(O)C(=O)OCc2ccccc2)c1=O
half-life [17]: 30 min
IC50 [18]: 3700 to 11000 nM
IC50 [19]: 293000 to 430000 nM
EC50 [8]: 80 to 4500 nM

Cc1cn([C@H]2C[C@H](N=[N+]=[N-])[C@@H](COP(=O)(O)OC[C@@H]3CC[C@H](n4cnc5c(=O)[nH]cnc54)O3)O2)c(=O)[nH]c1=O
EC50 [13]: 2 nM
remaining at 72 h, 100 µM [20]: 57%

Cc1cn([C@H]2C=C[C@@H](COC(=O)OCc3ccc(NC(=O)/C(O)=C/C(=O)c4cc(OCc5ccccc5)cc(OCc5ccccc5)c4)cc3)O2)c(=O)[nH]c1=O (stereo in doubt)
EC50 [7]: 430 nM

O=C(Oc1ccc2c(c1OC(=O)c1ccccc1)C(=O)c1ccccc1C2=O)c1ccccc1
IC50 [9]: 13000 nM
IC50 (Gag-Pol polyprotein): 12000 nM

COc1ccc2ccccc2c1/C=N/NC(=O)c1ccc(-c2ccccc2)cc1
IC50 [15]: 500 nM
IC50 [16]: 5000 nM

Cc1cn([C@H]2C=C[C@@H](COC(=O)OC[C@@H]3C=C[C@H](n4cc(C)c(=O)[nH]c4=O)O3)O2)c(=O)[nH]c1=O
EC50 [7]: 240 nM

NC(=O)c1ncn([C@@H]2O[C@H](COP(=O)(O)OC[C@@H]3CC[C@H](n4cnc5c(=O)[nH]cnc54)O3)[C@@H](O)[C@H]2O)n1
remaining at 72 h, 100 µM [20]: 44%

COC(=O)P(=O)(OC)OCCCn1c(=O)c(C)cn([C@@H]2O[C@H](CO[Si](C)(C)C(C)(C)C)[C@@]3(OS(=O)(=O)C=C3N)[C@H]2O[Si](C)(C)C(C)(C)C)c1=O (stereo partly specified)
half-life [17]: 30 min
EC50 [8]: 80 to 4500 nM

Cc1cn([C@H]2C[C@H](N=[N+]=[N-])[C@@H](COP(=O)(O)OC[C@H]3O[C@@H](n4cnc(C(N)=O)n4)[C@H](O)[C@@H]3O)O2)c(=O)[nH]c1=O
remaining at 72 h, 100 µM [20]: 36%

Cc1cccc(C)c1OCC(=O)N[C@@H](Cc1ccccc1)[C@H](OC(=O)CCCC(=O)NCC(=O)OC[C@H]1O[C@@H](n2cc(C)c(=O)[nH]c2=O)C[C@@H]1N=[N+]=[N-])C(=O)N1CSC(C)(C)[C@H]1C(=O)NC(C)(C)C
EC50 [14]: 0.1 nM

Cc1cn([C@@H]2O[C@H](CO[Si](C)(C)C(C)(C)C)[C@@]3(OS(=O)(=O)C=C3N)[C@H]2O[Si](C)(C)C(C)(C)C)c(=O)n(CCCOP(=O)(O)C(=O)O)c1=O
half-life [17]: 30 min
IC50 [18]: 3700 to 11000 nM
EC50 [21]: 160 nM
IC50 [19]: 293000 to 430000 nM
EC50 [8]: 80 to 4500 nM

Cc1cccc(C)c1OCC(=O)N[C@@H](Cc1ccccc1)[C@H](O)C(=O)N1CSC(C)(C)[C@H]1C(=O)NC(C)(C)C
EC50 [14]: 92 nM

Nc1ncnc2c1ncn2CCOCP(=O)(O)O [ADEFOVIR]
IC50 (Hepatitis B virus): 700 nM
EC50 [7]: 2000 nM

COC(=O)P(=O)([O-])OCCCn1c(=O)c(C)cn([C@@H]2O[C@H](CO[Si](C)(C)C(C)(C)C)[C@@]3(OS(=O)(=O)C=C3N)[C@H]2O[Si](C)(C)C(C)(C)C)c1=O.[Na+]
half-life [17]: 30 min
IC50 [18]: 3700 to 11000 nM
IC50 [19]: 293000 to 430000 nM
EC50 [8]: 80 to 4500 nM

Cc1cn([C@H]2C[C@H](N=[N+]=[N-])[C@@H](COC(=O)OC[C@H]3O[C@@H](n4cc(C)c(=O)[nH]c4=O)C[C@@H]3N=[N+]=[N-])O2)c(=O)[nH]c1=O
EC50 [7]: 2 nM

Cc1cn([C@H]2C=C[C@@H](COC(=O)NCCCCNC(=O)OC[C@H]3O[C@@H](n4cc(C)c(=O)[nH]c4=O)C[C@@H]3N=[N+]=[N-])O2)c(=O)[nH]c1=O
EC50 [7]: 96300 nM

COc1ccc2ccccc2c1/C=N/NC(=O)c1ccc(Oc2ccccc2)cc1
IC50 [15]: 400 nM
IC50 [16]: 7000 nM

CCOC(=O)P(=O)(O)OCCCn1c(=O)c(C)cn([C@@H]2O[C@H](CO[Si](C)(C)C(C)(C)C)[C@@]3(OS(=O)(=O)C=C3N)[C@H]2O[Si](C)(C)C(C)(C)C)c1=O
half-life [17]: 30 min
IC50 [18]: 3700 to 11000 nM
IC50 [19]: 293000 to 430000 nM
EC50 [8]: 80 to 4500 nM
